Assays:
[1] = test system: contractile response of isolated guinea pig ileum to angiotensin I; assay: Inhibition of contractile response of isolated guinea pig ileum to angiotensin I; type: cell-based; conditions: Cavia porcellus, angiotensin I 0.1 μg/ml; compound added 5 min before; 30° C.; read-out: Angiotensin I IC50 (50% inhibition of angiotensin I activity inducing the contraction of guinea pig ileum)
Excerpt: As the method of measurement of angiotensin I-converting enzyme activity, bioassay for the contractile response of isolated smooth muscle or the pressor response of normal animals and biochemical assay for the enzyme isolated from lung or other organs of animals are known. The former is found more advantageous than the latter for the examination of the convertion of angiotensin I to angiotensin II in vivo.
In the present study, therefore, we adopted the bioassay for contractile response of isolated guinea pig ileum to angiotensin I.
(§1) Measurement of inhibitory activity of angiotensin I-converting enzyme
(§2) Isolated guinea pig ileum was suspended in the organ bath containing 20 ml of Tyrode's solution of 30° C. gassed with 95% O2 +5% CO2. The contraction induced by the addition of angiotensin I (0.1 μg/ml) at intervals of 10 minutes was recorded on a recticorder (Nihon Koden) for 90 seconds using FD pick up (ST-1T-H, Nihon Koden).
(§3) The test compounds were added to the bath 5 minutes before the addition of angiotensin I.
The inhibitory activity of angiotensin I-converting enzyme was calculated by the following formula. [formula] A: contractile intensity of angiotensin I before addition of the compound B: contractile intensity of angiotensin I after addition of the compound

[2] = test system: contractile response to bradykinin (isolated guinea pig ileum); assay: Augmentation of contractile response of isolated guinea pig ileum to bradykinin; type: cell-based; conditions: Cavia porcellus, bradykinin 0.005 μg/ml; compound added 5 min before; 30° C.; read-out: Bradykinin AC50 (50% augmentation of bradykinin activity inducing the contraction of guinea pig ileum)
Procedure: as §2, §3
From the fact that kininase II, which destroys bradykinin having contractive action on isolated guinea pig ileum, is thought to be identical with angiotensin I-converting enzyme, augmentation of the contractile response to bradykinin by test compounds was examined by using bradykinin (0.005 μg/ml) in place of angiotensin I according to the above mentioned method.

[3] = biological target: T1, angiotensin I-converting enzyme (Oryctolagus cuniculus, UniProt P12822); assay: Inhibition of angiotensin I-converting enzyme by spectrophotometry (HHL substrate); type: biochemical; conditions: enzyme from rabbit lung; 5 mM HHL; pH 8.3; 37° C., 30 min
T1 construct: angiotensin I-converting enzyme extracted from rabbit lung; from tissue; host or cells: rabbit lung
T1 sequence (P12822 34-1310): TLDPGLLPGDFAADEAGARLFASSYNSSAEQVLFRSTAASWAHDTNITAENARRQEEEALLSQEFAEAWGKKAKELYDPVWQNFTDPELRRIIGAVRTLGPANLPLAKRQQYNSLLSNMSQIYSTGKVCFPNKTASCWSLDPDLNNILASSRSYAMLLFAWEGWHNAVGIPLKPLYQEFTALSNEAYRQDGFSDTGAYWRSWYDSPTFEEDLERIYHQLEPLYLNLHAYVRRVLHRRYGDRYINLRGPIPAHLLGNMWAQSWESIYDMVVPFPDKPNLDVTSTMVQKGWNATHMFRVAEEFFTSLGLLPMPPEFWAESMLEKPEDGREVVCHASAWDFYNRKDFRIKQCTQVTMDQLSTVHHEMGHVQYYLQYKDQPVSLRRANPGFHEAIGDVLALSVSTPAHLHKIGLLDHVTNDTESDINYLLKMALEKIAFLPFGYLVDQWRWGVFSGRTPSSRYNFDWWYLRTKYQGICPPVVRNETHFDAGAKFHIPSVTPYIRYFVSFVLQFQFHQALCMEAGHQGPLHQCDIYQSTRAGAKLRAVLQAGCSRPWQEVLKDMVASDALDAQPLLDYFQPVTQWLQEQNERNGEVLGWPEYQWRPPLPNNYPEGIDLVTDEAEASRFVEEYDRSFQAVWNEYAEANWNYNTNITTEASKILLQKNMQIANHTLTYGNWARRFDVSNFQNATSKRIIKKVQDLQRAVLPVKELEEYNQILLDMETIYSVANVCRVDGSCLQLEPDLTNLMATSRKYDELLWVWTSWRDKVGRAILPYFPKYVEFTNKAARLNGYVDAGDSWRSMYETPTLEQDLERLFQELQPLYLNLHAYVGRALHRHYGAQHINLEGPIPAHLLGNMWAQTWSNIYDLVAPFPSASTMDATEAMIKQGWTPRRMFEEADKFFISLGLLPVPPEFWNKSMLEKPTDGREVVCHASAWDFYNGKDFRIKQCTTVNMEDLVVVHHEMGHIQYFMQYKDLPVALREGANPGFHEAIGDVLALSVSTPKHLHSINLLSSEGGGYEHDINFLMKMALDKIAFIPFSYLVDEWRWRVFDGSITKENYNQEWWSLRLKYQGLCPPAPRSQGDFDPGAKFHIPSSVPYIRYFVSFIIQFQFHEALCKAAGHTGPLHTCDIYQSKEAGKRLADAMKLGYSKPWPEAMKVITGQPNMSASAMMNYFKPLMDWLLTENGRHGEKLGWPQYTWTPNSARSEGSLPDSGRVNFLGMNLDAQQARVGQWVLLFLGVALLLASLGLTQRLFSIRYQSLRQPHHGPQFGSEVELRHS
Procedure: That is, the absorbance of hippuric acid was measured, which is liberated by incubating hippuryl-L-histidyl-L-leucine (HHL) as substrate in the presence of angiotensin I-converting enzyme extracted from rabbit lung.
as §1
The reaction mixture is as follows:
100 mM phosphate buffer (pH 8.3)
10^-3 ~10^-9 M enzyme inhibitor
0.25 ml of the above mixture was incubated at 37° C. for 30 minutes and the reaction was stopped by adding 0.25 ml of 1 N hydrochloric acid. To this solution, 1.5 ml of ethyl acetate was added in order to extract hippuric acid. 1.0 ml of ethyl acetate layer was collected and evaporated to dryness, and the residue obtained was dissolved in 1.0 ml of water.
The inhibitory activity of angiotensin I-converting enzyme was calculated by the following formula: [formula]

[4] = test system: pressor response to angiotensin I; assay: Inhibition of pressor response to angiotensin I in rats after oral administration; type: in vivo, rat (male Wistar); conditions: angiotensin I 300 ng/kg i.v.; for Inhibition (%) of pressor response to angiotensin I, 5 min / Inhibition (%) of pressor response to angiotensin I, 15 min / Inhibition (%) of pressor response to angiotensin I, 25 min / Inhibition (%) of pressor response to angiotensin I, 35 min / Inhibition (%) of pressor response to angiotensin I, 45 min / Inhibition (%) of pressor response to angiotensin I, 55 min / Inhibition (%) of pressor response to angiotensin I, 65 min / Inhibition (%) of pressor response to angiotensin I, 75 min / Inhibition (%) of pressor response to angiotensin I, 85 min: dose: 3, 45, 49 1.8 mg/kg, 4, 46 1.3, 50 1.4, 76 2.0, 77 1.5; for Inhibition (%) of pressor response to angiotensin I, 95 min: dose: 45, 49 1.8 mg/kg, 4, 46 1.3, 50 1.4, 76 2.0, 77 1.5; for Inhibition (%) of pressor response to angiotensin I, 105 min / Inhibition (%) of pressor response to angiotensin I, 115 min: dose: 45, 49 1.8 mg/kg, 46 1.3, 50 1.4, 76 2.0, 77 1.5
Procedure: Male Wistar strain rats weighing about 200-300 g were used.
Under ether anesthesia, polyethylene cannulae are inserted into carotid arthery and jugular vein. The cannula to carotid artery is connected to an electric transducer, while the cannula to jugular vein is connected to an apparatus for continuous infusion. After the complete recovery from anesthesia, angiotensin I is infused intravenously in a dose of 300 ng/kg by the apparatus for continuous infusion, and the pressor response is recorded by polygraph (Nihon Koden, RM-150).
The compounds of this invention suspended in 0.5% tragacanth solution are administered orally in a dose of 0.3 ml per 100 g of body weight, and the pressor response to angiotensin I infused intravenously is measured with time.
The inhibitory activity of the compounds against angiotensin I-converting enzyme is expressed as the percent inhibition of pressor response to angiotensin I.

SMILES | IC50 [1] [µM] | IC50 [3] [µM] | AC50 [2] [µM] | further results
O=C(O)[C@@H]1CSC(c2ccc(O)c(O)c2)N1C(=O)CCS (stereo partly drawn) [Compound 58] | 0.52 | 2.6 | 0.0058 | 
C[C@H](CSC(=O)c1ccccc1)C(=O)N1C(C2CCCCC2)SC[C@H]1C(=O)O (stereo partly drawn) [Compound 3] |  |  |  | Inhibition (%) of pressor response to angiotensin I, 5 min [4]: 35.2%; Inhibition (%) of pressor response to angiotensin I, 15 min [4]: 40.8%; Inhibition (%) of pressor response to angiotensin I, 25 min [4]: 26.9%; Inhibition (%) of pressor response to angiotensin I, 35 min [4]: 17.9%; Inhibition (%) of pressor response to angiotensin I, 45 min [4]: 14.2%; Inhibition (%) of pressor response to angiotensin I, 55 min [4]: 14.8%; Inhibition (%) of pressor response to angiotensin I, 65 min [4]: 6.3%; Inhibition (%) of pressor response to angiotensin I, 75 min [4]: 9.5%; Inhibition (%) of pressor response to angiotensin I, 85 min [4]: 5.8%
O=C(O)[C@@H]1CSC(c2cccc(O)c2)N1C(=O)CCS (stereo partly drawn) [Compound 52] | 0.071 | 0.21 | 0.0015 | 
CC(C)=CCCC(C)CC1SC[C@@H](C(=O)O)N1C(=O)[C@H](C)CS (stereo partly drawn) [Compound 2] | 0.48 | 3.2 | 0.019 | 
COc1cccc(C2SC[C@@H](C(=O)O)N2C(=O)CCS)c1O (stereo partly drawn) [Compound 73] | 0.036 | 0.093 | 0.0011 | 
COc1ccc(C2SC[C@@H](C(=O)O)N2C(=O)[C@H](C)CSC(=O)c2ccccc2)c(O)c1 (stereo partly drawn) [Compound 76] |  |  |  | Inhibition (%) of pressor response to angiotensin I, 5 min [4]: 26.0%; Inhibition (%) of pressor response to angiotensin I, 15 min [4]: 45.9%; Inhibition (%) of pressor response to angiotensin I, 25 min [4]: 56.1%; Inhibition (%) of pressor response to angiotensin I, 35 min [4]: 55.9%; Inhibition (%) of pressor response to angiotensin I, 45 min [4]: 58.2%; Inhibition (%) of pressor response to angiotensin I, 55 min [4]: 47.1%; Inhibition (%) of pressor response to angiotensin I, 65 min [4]: 48.9%; Inhibition (%) of pressor response to angiotensin I, 75 min [4]: 40.7%; Inhibition (%) of pressor response to angiotensin I, 85 min [4]: 41.7%; Inhibition (%) of pressor response to angiotensin I, 95 min [4]: 32.2%; Inhibition (%) of pressor response to angiotensin I, 105 min [4]: 30.6%; Inhibition (%) of pressor response to angiotensin I, 115 min [4]: 28.5%
O=C(SCCC(=O)N1C(c2ccccc2O)SC[C@H]1C(=O)O)c1ccccc1 (stereo partly drawn) [Compound 45, (4R)-3-(S-Benzoyl-3-mercaptopropanoyl)-2-(2-hydroxyphenyl)-4-thiazolidinecarboxylic acid] |  |  |  | Inhibition (%) of pressor response to angiotensin I, 5 min [4]: 20.0%; Inhibition (%) of pressor response to angiotensin I, 15 min [4]: 26.6%; Inhibition (%) of pressor response to angiotensin I, 25 min [4]: 30.1%; Inhibition (%) of pressor response to angiotensin I, 35 min [4]: 31.8%; Inhibition (%) of pressor response to angiotensin I, 45 min [4]: 20.9%; Inhibition (%) of pressor response to angiotensin I, 55 min [4]: 13.5%; Inhibition (%) of pressor response to angiotensin I, 65 min [4]: 19.0%; Inhibition (%) of pressor response to angiotensin I, 75 min [4]: 14.9%; Inhibition (%) of pressor response to angiotensin I, 85 min [4]: 20.9%; Inhibition (%) of pressor response to angiotensin I, 95 min [4]: 10.3%; Inhibition (%) of pressor response to angiotensin I, 105 min [4]: 10.3%; Inhibition (%) of pressor response to angiotensin I, 115 min [4]: 8.8%

More lines, main results first:

IC50 [1] [µM] | IC50 [3] [µM] | SMILES | AC50 [2] [µM] | further results
0.24 | 0.34 | C[C@H](CS)C(=O)N1C(c2ccco2)SC[C@H]1C(=O)O (stereo partly drawn) [Compound 85] | 0.0037 | 
0.9 | 13 | O=C(O)[C@@H]1CSC(c2ccccc2)N1C(=O)CS (stereo partly drawn) [Compound 12] | 0.019 | 
0.088 | 0.75 | COc1ccc(C2SC[C@@H](C(=O)O)N2C(=O)[C@H](C)CS)cc1 (stereo partly drawn) [Compound 68] | 0.0021 | 
0.14 | 0.84 | C[C@H](CS)C(=O)N1C(c2cccnc2)SC[C@H]1C(=O)O (stereo partly drawn) [Compound 93] | 0.0029 | 
0.15 | 0.23 | C[C@H](CS)C(=O)N1C(c2cccc(O)c2)SC[C@H]1C(=O)O (stereo partly drawn) [Compound 54] | 0.0017 | 
0.21 | 1.3 | COc1cc(C2SC[C@@H](C(=O)O)N2C(=O)[C@H](C)CS)ccc1O (stereo partly drawn) [Compound 79] | 0.0032 | 
0.083 | 0.11 | C[C@H](CS)C(=O)N1C(c2ccncc2)SC[C@H]1C(=O)O (stereo partly drawn) [Compound 95] | 0.0031 | 
0.14 | 0.2 | COc1ccc(C2SC[C@@H](C(=O)O)N2C(=O)CCS)c(O)c1 (stereo partly drawn) [Compound 75] | 0.0031 | 
0.7 | 0.37 | C[C@H](CS)C(=O)N1C(c2cccs2)SC[C@H]1C(=O)O (stereo partly drawn) [Compound 91] | 0.01 | 

— patent publication US4356183A, “Antihypertensive 4-thiazolidinecarboxylic acids (pyridyl derivatives)” (Santen Pharmaceutical Co., Ltd., priority 1978, dated 1982)
